The text below walks through data of US20130011921A1, “METHOD FOR PRODUCTION OF ARTIFICIAL PLURIPOTENT STEM CELL” (SAITAMA MEDICAL UNIVERSITY, priority 2010, published 2013).

“Also recorded” adds a separate entry of the source.

Assay [1] concerns Nanog-GFP MEF. As to the kind of experiment: Induction of mouse iPS cells, Puro-resistant AP-positive colonies. It is filed as cell-based. The procedure:
(§1) For retroviral introduction, a retroviral vector expressing each pluripotency inducer (Oct-3/4, Sox2, KLF4, and c-Myc) was introduced into packaging cells, PLAT-E cells (Kitamura T, et al. (2003) Exp Hematol 31:1007-1014). Culture supernatants of PLAT-E cells were each recovered two days after gene introduction, and filtered through a 0.45 μm cellulose acetate. Polybrene was then added to a final concentration […], an equal amount of each culture supernatant was mixed, and the mixture was added to Nanog-GFP MEF (Okita K, Ichisaka T, Yamanaka S. (2007) nature 448:313-317) for viral infection. Nanog-GFP MEF is a cell being a mouse embryonic fibroblast (MEF) to which a BAC was introduced, wherein a GFP-IRES-Puro^r cassette is inserted into the BAC carrying the mouse Nanog gene.
On Day 4 after retroviral infection, these were seeded on STO feeder cells with suppressed proliferation ability from mitomycin C (SIGMA: M4287) treatment (seeded at 2×10^3 cells/ml for cells infected with 4F (c-Myc), 3.5×10^4 cells/ml for 3F), and on the next day cultured in mouse ES cell medium (Nishimoto M, et al. (1999) Mol Cell Biol 19:5453-5465). Thereafter the medium was replaced every two days, replaced with puromycin (Puro)-containing mouse ES cell medium (Puro to a final concentration of […]) on Day 17 after infection, and cultured for eight more days. Alkaline phosphatase (AP) staining was then performed. Nicotinamide was added simultaneously with retroviral infection to a final concentration 4 mM, and then added at the same concentration for every medium exchange.
In order to investigate the optimal treatment time of nicotinamide, nicotinamide was added under each conditions of until Day 24 after retroviral infection (Nam 0-24d), until Day 4 after retroviral infection (Nam 0-4d), and from Day 4 to Day 24 after retroviral infection (Nam 4-24d), and iPS cells were induced by 4F (c-Myc). Experimental method other than the […] treatment time was in accordance with Test 1.
Consequently, resveratrol which activates sirtuin (SIRT1) was added to the medium instead of nicotinamide to investigate the induction effect of iPS cells. Experimental method was in accordance with Test 2, except that resveratrol (Res) was added to the medium to a final concentration 100 μM.

Assay [2] deals with Nanog-GFP MEF. As to the kind of experiment: GFP observation of induced mouse iPS cells with a fluorescence microscope. It is filed as cell-based. To be noted: 4F (c-Myc). The procedure:
as §1

The test system of assay [3] is Nanog-GFP MEF. Briefly: Inspection on Day 4 after retroviral infection (colonies, cell count, AP staining, undifferentiated markers). Type of assay: cell-based, mouse. The protocol: As a result, iPS cell-like colonies were recognized in the Nam treatment group, but not in the untreated control group. (FIGS. 4 and 5A). Next, in order to investigate the influence of nicotinamide on Day 4 after infection, the number of cells was counted and AP staining was performed. […] Further, as a result of investigating the expression of various undifferentiated markers, it became clear that the expression of undifferentiated markers was increased compared to the non-treatment group due to nicotinamide treatment (data not shown). Accordingly, it became clear that iPS cell induction was already promoted on Day 4 after infection by nicotinamide treatment.

For assay [4], the system named is Nanog-GFP MEF. As to the kind of experiment: Induction of mouse iPS cells in the presence of MEK inhibitor and GSK-3 inhibitor (2i method), fluorescence microscope. To be noted: 4F (c-Myc); nicotinamide treatment followed by 2i method; FIGS. 7C and 7D. Type of assay: cell-based. The protocol:
Nanog-GFP MEF was subjected to forced expression of 4F(c-Myc) retrovirally. These were seeded on feeder cells on Day 4 after retroviral infection, and cultured in mouse ES cell medium from the following day. This was replaced with a serum-free mouse ES cell medium comprising PD0325901 (1 μM) and CHIR99021 (3 μM) (2i medium) from Day 12 after infection. […] As the control zone, culturing was also performed in a serum-free mouse ES cell medium without PD0325901 and CHIR99021 from 12 days after infection for four days. It was confirmed that true iPS cells are increased by the 2i method (FIGS. 7A and 7B).

Assay [5] has as its system Nanog-GFP MEF. Briefly: 2i method timing and combination with nicotinamide, Puro-resistant AP-positive colonies. It is filed as cell-based, mouse. The protocol:
Nanog-GFP MEF was subjected to forced expression of 4F(c-Myc) retrovirally. These were seeded on feeder cells on Day 4 after retroviral infection, and cultured in mouse ES cell medium from the following day until replaced with the 2i medium. Culturing in the 2i medium was initiated on (1) Day 5, (2) Day 7, (3) Day 9, (4) Day 11, (5) Day 13, and (6) Day 15 after retroviral infection, and continued until Day 17 after infection. From Day 17 after infection, drug selection by Puro was performed for eight days, and then AP staining was performed. […] Next, in order to compare when the nicotinamide treatment is performed simultaneously with retroviral infection and when it is performed after one day post infection, investigation was performed in accordance with the conditions of Test 5 (1).

Another assay deals with human fibroblasts. Briefly: Induction of human iPS cells in the presence of nicotinamide, AP-positive colonies. It is filed as cell-based. The protocol:
For retroviral introduction, retroviral vectors expressing each pluripotency inducer (Oct-3/4, Sox2, KLF4, and c-Myc) were introduced into packaging cells, PLAT-GP cells (Morita S, et al. (2000) Gene Therapy 7:1063-1066). Culture supernatants of PLAT-GP cells were each recovered two days after gene introduction, and filtered through a 0.45 μm cellulose acetate. Polybrene was then added to a final concentration […], an equal amount of each culture supernatant was mixed, and the mixture was added to human fibroblasts for viral infection. These were seeded on feeder cells on Day 6 after retroviral infection (4F (c-Myc): 2.5×10^4; 4F (L-Myc): 5.0×10^4), and cultured in human ES cell medium on the following day (Takahashi K, et al (2007) Cell 131:861-872). Thereafter the medium was exchanged every two days, and cultured until thirty days after infection. Alkaline phosphatase (AP) staining was then performed, and the number of AP-positive colonies was counted. Nicotinamide was added simultaneously with retroviral infection to a final concentration 4 mM, and then added at the same concentration for every medium exchange until Day 6 after infection. The control zone was cultured to thirty days after infection without adding nicotinamide.

Regarding `NC(=O)c1cccnc1` [nicotinamide], the “number of Puro-resistant colonies” value in the assay with Nanog-GFP MEF [1] (4F (c-Myc), nicotinamide added Day 0 to Day 4 (Nam 0-4d), FIG. 3) is listed as “similarly significantly increased”; in the assay on Nanog-GFP MEF [1] (4F (c-Myc), nicotinamide added Day 0 to Day 24 (Nam 0-24d), FIG. 3) it was “significantly increased”. In addition, the “effect of increasing the number of Puro-resistant colonies” value in the assay with Nanog-GFP MEF [1] (4F (c-Myc), nicotinamide added on or after Day 4 (Nam 4-24d), FIG. 3) is listed as “barely obtained”. In addition, in the assay with Nanog-GFP MEF [1] (cells infected with 3F (without c-Myc), nicotinamide 4 mM, FIG. 1C), the “increase in induction efficiency (Puro-resistant AP-positive colonies)” value is reported as “not seen”. In the assay on Nanog-GFP MEF [1] (cells infected with 4F (c-Myc), nicotinamide 4 mM from infection, at every medium exchange, FIG. 1A, 1B), the “number of colonies showing resistance to puromycin (Puro-resistant AP-positive colonies)” value was “significantly increased”. Moreover, the “GFP color development vs non-administration group” value with Nanog-GFP MEF [2] (after drug selection by Puro, FIG. 2 lower column) is “more intense color development”. For the same compound, in the assay on Nanog-GFP MEF [2] (without drug selection by Puro, FIG. 2 upper column), the “GFP color development vs nicotinamide-untreated control cells” value is reported as “slightly more intense color development”. In addition, the “number of AP-positive colonies” value in the assay with Nanog-GFP MEF [3] (Day 4 after infection, FIG. 5C) is reported as “significant increase”; in the assay with human fibroblasts (nicotinamide 4 mM until Day 6, counted thirty days after infection, vs zone without nicotinamide, FIG. 10) it was “increased”. Also, the number of cells result in the assay with Nanog-GFP MEF [3] (Day 4 after infection, vs non-treatment cell group, FIG. 5B) is reported as “increase”. In addition, the “expression of undifferentiated markers” value in the assay on Nanog-GFP MEF [3] (Day 4 after infection, vs non-treatment group, data not shown) was “increased”. For the same compound, in the assay with Nanog-GFP MEF [3] (Day 4 after retroviral infection, vs untreated control group, FIGS. 4 and 5A), the iPS cell-like colonies result is on record as “recognized”. Besides, the “true iPS cells” value with Nanog-GFP MEF [4] is “dramatic increase”. Besides, in the assay on Nanog-GFP MEF [5] (nicotinamide 4 mM Day 0 to Day 4 plus 2i method as Test 5 (1), FIG. 9A), the “proportion of true iPS cells” value is reported as “significantly increased”. Further, the “induction efficiency compared to the conventional method” value in the assay with Nanog-GFP MEF [5] (nicotinamide treatment combined with 2i method, FIG. 9) is “about 10 times”. Besides, the “induction efficiency, nicotinamide Day 1 to Day 4 relative to Day 0 to Day 4” value in the assay on Nanog-GFP MEF [5] (with 2i method as Test 5 (1), FIG. 9B) is on record as “three-fold; also recorded: three times or more”. The “induction efficiency of iPS cells” value was “increased” in the assay on human fibroblasts (L-Myc as the Myc family gene, 4F (L-Myc), FIG. 10B) and “increased” with human fibroblasts (c-Myc as the Myc family gene, 4F (c-Myc), FIG. 10A).

For `Oc1ccc(C=Cc2cc(O)cc(O)c2)cc1` [resveratrol], the “number of Puro-resistant colonies” value in the assay with Nanog-GFP MEF [1] (4F (c-Myc), resveratrol 100 μM added Day 0 to Day 4, vs DMSO control, FIG. 6) is “significantly decreased”; with Nanog-GFP MEF [1] (4F (c-Myc), resveratrol 100 μM added Day 0 to Day 17, vs DMSO control, FIG. 6) it was “significantly decreased”; in the assay on Nanog-GFP MEF [1] (4F (c-Myc), resveratrol 100 μM added on Day 4 after introduction, FIG. 6) it was “relatively large number”.
